Among the data in patent EP0332156B1, “Cephem compounds and processes for preparation thereof” (FUJISAWA PHARMACEUTICAL CO., LTD., priority 1988, dated 1989) are MIC values, retold here.

The test system of this assay is E. coli 31. As to the kind of experiment: In vitro antibacterial activity (MIC), two-fold agar-plate dilution method. Type of assay: cell-based. The settings on record: Escherichia coli; test strain E. coli 31; heart infusion agar; incubation at 37°C for 20 hours; inoculum 10^8 viable cells per ml. How it is done: In vitro antibacterial activity was determined by the two-fold agar-plate dilution method as described below. One loopful of an overnight culture of each test strain in Trypticase-soy broth (10^8 viable cells per ml) was streaked on heart infusion agar (HI-agar) containing graded concentrations of representative test compound, and the minimal inhibitory concentration (MIC) was expressed in terms of µg/mℓ after incubation at 37°C for 20 hours.

One may read the MIC as the lowest concentration found to suppress growth. A higher MIC goes with a need for much substance. Consider `CON=C(C(=O)NC1C(=O)N2C(C(=O)[O-])=C(C[n+]3ccc4n3CCN4)CSC12)c1csc(N)n1` (stereo not shown) [(1)], for which the MIC was at most 0.025 µg/mL.
